Measurements from patent publication US20250263436A1, “BROAD-SPECTRUM ANTIVIRAL DRUG FOR ENTEROVIRUS, AND APPLICATION” (WUHAN INSTITUTE OF VIROLOGY, CHINESE ACADEMY OF SCIENCES, priority 2020, published 2025).
“And” between values parts separate entries of the source, which are not always exact repeats. Equal values may be shown once. “Also recorded” adds a separate entry of the source.

Legend:
Echo 11 = test: Inhibition of Echo 11 in RD cells (viral RNA, qRT-PCR); format: cell-based; details: inhibiting Echo 11 in RD cells
Method: (§1) (1) RD cells were plated in a 24-well plate.
(2) When the cells grew to a confluence of 70%-80%, the DMEM medium containing 10% serum was replaced with a DMEM medium containing 2% serum (the DMEM medium containing 2% serum was added in each well at an amount of 0.5 mL), and 5 μL of Echo 11 virus of 1×10^6 PFU/mL was added to each well.
(§2) (3) After 1 h, the polypeptides with final concentrations of 0.3125 μM, 0.625 μM, 1.25 μM, 2.5 μM, and 5 μM were added respectively. The group without polypeptide added was used as a control.
(4) The samples were collected 24 h after the infection of Echo 11 virus, and RNA was extracted with the total RNA extraction kit.
(§3) (5) The supernatant was discarded, then 350 μL of TRK lysate was added to each well, and the plate was put on a shaker for 5 min.
(§4) (6) 350 μL of 70% ethanol (DEPC) was added to each well, and then the plate was put on a shaker for 5 min.
(§5) (7) The solution in each well was transferred to a RNA extraction column for 1 min of centrifugation at 12000 g.
(§6) (8) The solution obtained in the recovery tube was reloaded on the column again for 1 min of centrifugation at 12000 g.
(§7) (9) RNA washing buffer 1 was added in the column for 30 s of centrifugation at 12000 g. […]
(§8) (14) 2 μL of RNA sample was subjected to a fluorescence quantitative experiment using the one step qRT-PCR kit. […]

RD cells = test: Toxicity assay in RD cells (CCK-8); format: cell-based; details: RD cells, 24 h
Method: (§9) (1) Different cells were plated in a 96-well plate at 100 μL per well.
(§10) (2) When the cells grew to a confluence of 70%-80%, the DMEM medium containing 10% serum was replaced with a DMEM medium containing 2% serum, and a certain concentration gradient of polypeptide RQ was added, so that the final concentrations of the polypeptide in the wells were 0.073242 μM, 0.146484 μM, 0.292969 μM, 0.585938 μM, 1.171875 μM, 2.34375 μM, 4.6875 μM, 9.375 μM, 18.75 μM, 37.5 μM, 75 μM, 150 μM, and 300 μM, respectively.
(§11) (3) The samples were collected 24 h after the addition of the polypeptide, and then 10 μL of live cell detection reagent CCK-8 was added to each well and mixed well.
(§12) (4) The plate was placed at 37° C. for 2 h.
(§13) (5) The absorbance value at OD450 was detected by a microplate reader.
(§14) (1) RD cells were plated in a 96-well plate at 100 μL per well.
(§15) (2) When the cells grew to a confluence of 70%-80%, the DMEM medium containing 10% serum was replaced with a DMEM medium containing 2% serum, and B-RQ was added so that the final concentrations in the wells were 0.46 μM, 2.34 μM, 4.68 μM, 9.37 μM, 18.75 μM, 37.5 μM, 75 μM, and 150 μM.

[1] = Toxicity assay in RD cells (CCK-8); format: cell-based; details: human
Method: as §9, §10, §11, §12, §13, §14, §15

CVB3 = test: Inhibition of CVB3 in RD cells (viral RNA, qRT-PCR); format: cell-based; details: inhibiting CVB3 in RD cells
Method: as §1
(2) When the cells grew to a confluence of 70%-80%, the DMEM medium containing 10% serum was replaced with a DMEM medium containing 2% serum (the DMEM medium containing 2% serum was added in each well at an amount of 0.5 mL), and 5 μL of CVB3 virus of 1×10^6 PFU/mL was added to each well.
as §2
(4) The samples were collected 24 h after the infection of CVB3 virus, and RNA was extracted with the total RNA extraction kit.
as §3, §4, §5, §6, §7, §8

[2] = test system: cell-penetrating peptide YGRKKRRQRRR (TAT)

Which results are given for `CC(C)C[C@H](NC(=O)[C@H](C)NC(=O)[C@H](CCC(=O)O)NC(=O)[C@H](CC(C)C)NC(=O)[C@@H](NC(=O)[C@H](C)NC(=O)CNC(=O)[C@@H](NC(=O)[C@H](CO)NC(=O)[C@H](Cc1c[nH]cn1)NC(=O)[C@H](CCCNC(=N)N)NC(=O)[C@H](Cc1c[nH]cn1)NC(=O)[C@H](CC(N)=O)NC(=O)[C@H](Cc1ccc(O)cc1)NC(=O)[C@H](CCC(=O)O)NC(=O)[C@H](CCCNC(=N)N)NC(=O)CNC(=O)[C@H](CO)NC(=O)CNC(=O)[C@H](CCCNC(=N)N)NC(=O)[C@H](CCCNC(=N)N)NC(=O)[C@H](CCCNC(=N)N)NC(=O)[C@H](CCC(N)=O)NC(=O)[C@H](CCCNC(=N)N)NC(=O)[C@H](CCCNC(=N)N)NC(=O)[C@H](CCCCN)NC(=O)[C@H](CCCCN)NC(=O)[C@H](CCCNC(=N)N)NC(=O)CNC(=O)[C@@H](N)Cc1ccc(O)cc1)C(C)C)[C@@H](C)O)C(=O)N[C@@H](Cc1ccccc1)C(=O)N[C@@H](CCC(N)=O)C(=O)O` [B-RQ]?
IC50 (Echo 11): 380 nM; Cell viability (%) (RD cells; B-RQ 0.46875 μM): 99.47% and 98.27%; Cell viability (%) (RD cells; B-RQ 2.34375 μM): 97.93% and 97.19%; Cell viability (%) (RD cells; B-RQ 4.6875 μM): 100.7775% and 96.97%; Cell viability (%) (RD cells; B-RQ 9.375 μM): 96.62% and 96.17%; Cell viability (%) (RD cells; B-RQ 18.75 μM): 97.36%; Cell viability (%) (RD cells; B-RQ 37.5 μM): 99.64% and 99.24%; Cell viability (%) (RD cells; B-RQ 75 μM): 95.66%; Cell viability (%) (RD cells; B-RQ 150 μM): 95.94% and 95.32%; viability at 24 h, 0.46875 µM ([1]; RD cells, B-RQ 0.46875 μM, 24 h, read-out: Cell viability (%)): 99%; viability at 24 h, 2.34375 µM ([1]; RD cells, B-RQ 2.34375 μM, 24 h, read-out: Cell viability (%)): 99.1%; viability at 24 h, 4.6875 µM ([1]; RD cells, B-RQ 4.6875 μM, 24 h, read-out: Cell viability (%)): 98.7%; viability at 24 h, 9.375 µM ([1]; RD cells, B-RQ 9.375 μM, 24 h, read-out: Cell viability (%)): 99.3%; viability at 24 h, 18.75 µM ([1]; RD cells, B-RQ 18.75 μM, 24 h, read-out: Cell viability (%)): 97.8%; viability at 24 h, 37.5 µM ([1]; RD cells, B-RQ 37.5 μM, 24 h, read-out: Cell viability (%)): 99.4%; viability at 24 h, 75 µM ([1]; RD cells, B-RQ 75 μM, 24 h, read-out: Cell viability (%)): 96%; viability at 24 h, 150 µM ([1]; RD cells, B-RQ 150 μM, 24 h, read-out: Cell viability (%)): 95.5%; CC50 at 24 h ([1]; Table 1 (RD cells)): > 75000 nM; IC50 (CVB3): 2290 nM

Which results are given for MBP-EV71 2C protein?
helicase activity (unwinding of HEX-labeled dsRNA substrate, gel electrophoresis) (polypeptide RQ): the addition of RQ inhibited the helicase activity of 2C (lane 5); also recorded: RQ inhibited the helicase activity of EV71 2C in a dose-dependent manner; helicase activity (unwinding of HEX-labeled dsRNA substrate, gel electrophoresis) [2]: the control TAT did not affect the helicase activity of 2C (lane 4)
